Source: US20210220408A1, “ARYL HYDROCARBON RECEPTOR ANTAGONISTS AND METHODS OF USE” (Magenta Therapeutics Inc., priority 2018, published 2021)

Target: T1, aryl hydrocarbon receptor (AHR) (Homo sapiens, UniProt P35869)
T1 sequence (P35869 11-848): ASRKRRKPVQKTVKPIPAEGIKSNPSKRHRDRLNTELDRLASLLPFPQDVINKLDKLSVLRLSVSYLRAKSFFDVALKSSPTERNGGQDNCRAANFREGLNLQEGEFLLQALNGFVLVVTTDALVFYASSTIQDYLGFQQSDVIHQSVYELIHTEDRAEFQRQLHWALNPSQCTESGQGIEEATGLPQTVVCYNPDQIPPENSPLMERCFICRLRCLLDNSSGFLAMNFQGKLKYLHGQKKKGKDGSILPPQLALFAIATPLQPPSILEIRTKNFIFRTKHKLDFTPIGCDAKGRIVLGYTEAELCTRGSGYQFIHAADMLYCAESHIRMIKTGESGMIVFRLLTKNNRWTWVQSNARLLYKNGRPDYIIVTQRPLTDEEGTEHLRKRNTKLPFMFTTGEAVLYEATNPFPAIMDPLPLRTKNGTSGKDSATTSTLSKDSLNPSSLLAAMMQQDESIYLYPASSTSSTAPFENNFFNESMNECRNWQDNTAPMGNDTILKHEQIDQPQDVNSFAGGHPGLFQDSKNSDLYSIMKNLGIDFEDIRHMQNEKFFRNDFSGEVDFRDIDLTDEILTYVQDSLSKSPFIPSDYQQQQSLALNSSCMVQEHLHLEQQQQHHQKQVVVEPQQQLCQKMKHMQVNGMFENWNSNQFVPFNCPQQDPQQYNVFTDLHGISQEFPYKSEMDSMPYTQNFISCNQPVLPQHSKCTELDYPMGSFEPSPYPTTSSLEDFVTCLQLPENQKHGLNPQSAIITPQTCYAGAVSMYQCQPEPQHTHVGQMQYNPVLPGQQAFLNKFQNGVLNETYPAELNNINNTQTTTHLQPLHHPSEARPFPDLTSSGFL
Test: DRE-Luciferase reporter high-throughput screen (AHR antagonist, VAF347-activated)
Excerpt: HepG2 hepatocellular carcinoma cells were transfected with a dioxin-response element (DRE) Firefly luciferase reporter construct. Luciferase transcription was activated with the aryl hydrocarbon receptor (AHR) agonist, VAF347. Addition of an AHR antagonist results in inhibition of the luciferase transcription and a loss of signal in the assay.
HepG2, a hepatocellular carcinoma cell line, was transfected with the dioxin-response element Firefly luciferase reporter construct using the TransIT-transfection system. Prior to transfection, HepG2 cells (Sigma) were cultured at 90% confluency in Eagle's Modified Essential Medium (Sigma)+2 mM Glutamine (Sigma), +1^% Non Essential Amino Acids (Sigma)+10% Fetal Bovine Serum (Hyclone) and harvested and counted (Biorad TC20 cell counter). OptilMEM serum-free media and TransIT (Mirus) were mixed for transfection in 150 mm dishes by adding 240 μL Transit to 3.0 mL OptiMEM, vortexing briefly to mix, and incubating at room temperature for 20 minutes. The DNA mixture was prepared by adding 80 μg plasmid (pGudLuc6.1 plasmid, Garrison et al., (1996) Fundam. Appl. Toxicol., 30, 194-203), inverting to mix, and incubating at room temperature for 30 minutes. 30×10^6 HepG2 cells were seeded in 30 mL media and 3.3 mL of the DNA, OptiMEM, and TransIT mixture was added dropwise to the plate. The plate was mixed by rocking and incubated at 37° C./5% CO2 overnight. The next day, cells were harvested by aspirating media, washing once with sterile phosphate buffered saline (PBS, Gibco), trypsinzing with 0.05% Trypsin (Corning) and harvesting cells with culture medium, and freezing with Cell Freezing Media (Gibco) at 5 50×10^6 cells/vial in 1 mL/vial.
Transiently-transfected frozen HepG2 cells with DRE-Luciferase, were thawed in a 37° C. water bath and resuspended in complete media. 4 μL cells at 15,000 cells per well was transferred into the wells of a 1536-well Alphaplate assay plate (PerkinElmer) using TEMPEST liquid dispenser. The plate was centrifuged at 1000 rpm for 1 minute. 30 nL of the controls (1 μM (S)-2-(6-((2-(1H-indol-3-yl)ethyl)amino)-2-(5-fluoropyridin-3-yl)-9H-purin-9-yl)propan-1-ol or 100% DMSO) were transferred to the assay plate using the Pin Tool on BRAVO. 1 μL of VAF347 (15 nM final concentration) in complete media was added to the wells using TEMPEST. The plate was centrifuged at 1000 rpm for 1 minute and incubated at 37° C./5% CO2 overnight. After incubation, the plate was removed from the incubator and brought to room temperature. 2 μL of room temperature Steady-Glo luciferase detection reagent (Promega) was added to the wells with TEMPEST. The plate was centrifuged at 2000 rpm for 1 minute, sealed with clear plastic seal and kept at room temperature for 15 minutes prior to measuring luminescence on ENVISION.
Approximately 166,000 compounds were screened in 132 1536-well plates in the luciferase reporter gene assay at a final concentration of 12 μM. […] Each compound was tested at 0.1 μM, 1.0 μM, and 10 μM in the DRE luciferase assay and Cell Titer Glo cytotoxicity assay (Promega). […] 512 compounds were selected for 10-point dose-response in the AHR luciferase reporter assay and the Cell Titer Glo cytotoxicity assay.

IC50 | Structure (SMILES)
1 to 2 µM | COc1ccccc1C(=O)Nc1c(C)cc(C)c2cccnc12 [27B]
1 to 2 µM | N#Cc1cc(F)c(NC(=O)c2nsc(Cl)c2Cl)cc1F [28A]
0.2 to 0.5 µM | Cc1ccc(NC(=O)c2cc3c(=O)[nH]c(=O)n(C)c3nc2C)cc1Cl [28B]
1 to 2 µM | CC(=O)c1cc(NC(=O)c2ccc(Cl)cc2)c(=O)n(Cc2ccc(Cl)cc2)c1C [29A]
1 to 2 µM | Cc1ccc(NC(=O)c2cc3ccccc3n(C)c2=O)cc1 [29B]
1 to 2 µM | CCc1c(C(=O)Nc2c(C)nn(-c3ccccc3)c2C)cnn1-c1ccc([N+](=O)[O-])cc1 [30A]
1 to 2 µM | COc1ccc(NC(=O)c2noc3c2CC(C)CC3)cc1 (stereo not drawn) [30B]
> 2 µM | Cn1ccc(NC(=O)c2cc(-c3cccc(Cl)c3)[nH]n2)n1 [31A]
1 to 2 µM | CCC1CCc2c(sc(NC(=O)c3c(C)noc3C)c2C(N)=O)C1 (stereo not drawn) [31B]
1 to 2 µM | O=C(Nc1ccc(N2CCc3sccc3C2)nc1)c1cc(Br)c[nH]1 [32A]
1 to 2 µM | N#Cc1c(NC(=O)c2cnn3cccnc23)sc2c1CCC2 [32B]
> 2 µM | CCn1cc(C(=O)Nc2ccc(Br)cn2)cn1 [33A]
0.2 to 0.5 µM | N#Cc1ccc(-c2csc(-c3ccsc3)n2)cc1 [33B]
> 2 µM | Cc1nc(NC(=O)c2cc(C(C)(C)C)n[nH]2)sc1SCC#N [34A]
1 to 2 µM | COc1ccc(OCc2nc(-c3cccc(F)c3)cs2)cc1 [34B]
1 to 2 µM | O=C(Nc1ccc2ccccc2c1)c1cccc(NC(=O)C(F)(F)F)c1 [35A]
> 2 µM | COc1ccc(Br)cc1-c1nc(Cn2cnc(C#N)n2)cs1 [35B]
1 to 2 µM | CS(=O)(=O)Nc1cccc(C(=O)Nc2cccc3cccnc23)c1 [36A]
1 to 2 µM | Cn1c(N)c(-c2csc(-c3cccc(Cl)c3)n2)c(=O)n(C)c1=O [36B]
1 to 2 µM | CC(C)c1nc2ccc(NC(=O)c3ccc(F)cc3)cc2[nH]1 [37A]
0.2 to 0.5 µM | O=C(c1csc(-c2ccsc2)n1)N1CCCc2cc(C(F)(F)F)ccc21 [37B]
> 2 µM | Cc1cccc(NC(=O)c2ccc3c(c2)CC(C)O3)c1 (stereo not drawn) [38A]

IC50 | Structure (SMILES)
0.5 to 1 µM | Clc1ccc(-c2csc(-c3ccc4c(c3)CCO4)n2)s1 [38B]
1 to 2 µM | O=C(Nc1ccc2c(c1)ncn2-c1ccccc1)c1ccc(Cl)cc1 [39A]
1 to 2 µM | CCn1c(-c2csc(N(C(C)=O)c3ccccc3)n2)nc2ccccc21 [39B]
1 to 2 µM | Cc1[nH]c2c(C(=O)Nc3cccc(CN4CCOC4=O)c3)cccc2c1C [40A]
1 to 2 µM | CNc1nc(-c2sc3ncnn3c2C)cs1 [40B]
> 2 µM | O=C(Nc1ccc2[nH]c(-c3ccc(Br)o3)nc2c1)c1ccc([N+](=O)[O-])cc1 [41A]
1 to 2 µM | O=C(Cn1cnnn1)N(CCc1ccccc1)c1nc(-c2ccccc2)cs1 [41B]
1 to 2 µM | O=C(CN1CCCCCC1)Nc1sc2c(c1C(=O)Nc1ccc(Br)cc1)CCC2 [42A]
0.2 to 0.5 µM | Cn1nc(N2CCN(c3ccccc3Cl)CC2)c(=O)n(C)c1=O [42B]
1 to 2 µM | CC(=O)Nc1ccc(NC(=O)c2cccc3c2OCC3)cc1 [43A]
> 2 µM | C/C(=N\NC(=O)c1ccco1)c1ccc(Cl)c(Cl)c1 [43B]
1 to 2 µM | COc1cccc(Cn2c3c(cc(NC(=O)c4ccc(C)cc4)c2=O)C(=O)CCC3)c1 [44A]
1 to 2 µM | COc1ccc([N+](=O)[O-])cc1-c1ccc(/C=N/Nc2ccccc2)o1 [44B]
> 2 µM | O=C(Nc1cc(=O)c2ccccc2o1)c1ccc(Cl)cc1 [45A]
1 to 2 µM | FC(F)(F)c1ccc(N/N=C/c2ccc(Cl)cc2)nc1 [45B]
1 to 2 µM | CCCn1cnc(-c2nc(C(=O)Nc3cc(C)ccc3C)c3ccccn23)c1 [46A]
0.2 to 0.5 µM | FC(F)(F)c1ccc(CSc2nccc(-c3cccnc3)n2)cc1 [46B]
> 2 µM | Cc1cccc(NC(=O)c2nc(-c3cn(CC4CCCO4)cn3)n3ccccc23)c1 (stereo not drawn) [47A]
1 to 2 µM | COc1ccc(Nc2cc(C)nc(-c3ccccc3O)n2)cc1 [47B]
> 2 µM | CCn1cnc(-c2nc(C(=O)Nc3cccc(F)c3)c3ccccn23)c1 [48A]
0.5 to 1 µM | O=[N+]([O-])c1cccc(-c2ccc(SCc3ccccc3F)nn2)c1 [48B]
1 to 2 µM | Cc1nc(NC(=O)c2cc3nc(N(C)C)n(-c4ccccc4)c3s2)sc1C [49A]

Further lines, the compound ahead of its results:

Structure (SMILES) | IC50
C#CCOc1ccc(C(=O)Nc2cccc(OC)c2)cc1 [1A] | > 2 µM
COc1ccc(C(=O)Nc2cccc(F)c2)cc1C [1B] | 1 to 2 µM
O=C(Nc1ccc(-c2cnc(C3CC3)o2)cc1)c1cccc(F)c1 [2A] | > 2 µM
COc1ccc(C(=O)Nc2ccc(C)c(F)c2)cc1 [2B] | 1 to 2 µM
CCc1nnc(-c2ccc(NC(=O)c3ccccc3OC)cc2)o1 [3A] | 1 to 2 µM
O=C(Nc1ccc(-c2cnco2)cc1)c1ccc(F)cc1F [3B] | 0.2 to 0.5 µM
O=C(Nc1cccc(Cl)c1)c1ccc(-n2cccn2)c([N+](=O)[O-])c1 [4A] | 1 to 2 µM
CSc1ccccc1NC(=O)c1ccc(-c2ccccc2)cc1 [4B] | > 2 µM
N#Cc1cccnc1Oc1ccc(NC(=O)c2ccc(F)cc2F)cc1 [5A] | 1 to 2 µM
O=C(Nc1ccc(OC(F)F)c(Cl)c1)c1cccc(Cl)c1 [5B] | 0.5 to 1 µM
O=C(Nc1ccc(OC(F)(F)F)cc1)c1ccc(F)cc1 [6A] | 1 to 2 µM
CCC(=O)Nc1ccc(Cl)c(NC(=O)c2ccc(OC(C)C)cc2)c1 [6B] | 0.5 to 1 µM
N#Cc1ccc(C(=O)Nc2ccc(Cl)c(C#N)c2)cc1 [7A] | 1 to 2 µM
CCOc1ccc(C(=O)Nc2ccccc2C(N)=O)cc1 [7B] | 1 to 2 µM
CCCCc1ccc(C(=O)Nc2ccccc2O)cc1 [8A] | > 2 µM
Cc1ccc(C(=O)Nc2ccc(Br)c(C)n2)c(Cl)c1 [8B] | 0.5 to 1 µM
Cc1cc(C)n(-c2ccc(NC(=O)c3ccc(OC(F)F)cc3)cc2F)n1 [9A] | > 2 µM
COc1ccc(C(=O)Nc2cc(C)cc(C)n2)cc1 [9B] | 1 to 2 µM
O=C(Nc1ccc(-c2nccs2)cc1)c1ccc(CN2C(=O)CNC2=O)cc1 [10A] | 1 to 2 µM
COc1ccc(Cl)cc1C(=O)Nc1ccc(NC(=O)c2cccc(S(C)(=O)=O)c2)c(Cl)c1 [10B] | 0.2 to 0.5 µM
CCOc1ccc(NC(=O)c2c(C)coc2C)cc1 [11B] | 0.5 to 1 µM
CCN(CC)c1ccc(NC(=O)c2cccnc2O)cc1 [12A] | 1 to 2 µM
Cc1ccccc1NC(=O)c1cc(-c2cnc(-c3ccccc3)nc2)cn1C [12B] | 1 to 2 µM
O=C(Nc1ccc(N2CCC(C(F)(F)F)CC2)nc1)c1cccc(Cl)c1 [13A] | > 2 µM
Cc1noc(C)c1C(=O)Nc1ccc(-c2ccccc2)cc1 [13B] | 0.5 to 1 µM
CSc1nccc(NC(=O)c2cccc(C(F)(F)F)c2)n1 [14A] | > 2 µM

Structure (SMILES) | IC50
O=C(Nc1nc(-c2ccc(F)cc2)n[nH]1)c1cc(F)cc(F)c1 [14B] | 0.5 to 1 µM
Cc1cc(C)c2oc(-c3cccc(NC(=O)c4cccnc4)c3C)nc2c1 [15A] | 1 to 2 µM
O=C(Nc1ccc(Cl)cc1)c1ccc(-c2ccccn2)s1 [15B] | 0.5 to 1 µM
COc1cccc(C(=O)Nc2cnc(-c3ccccc3)nc2)c1 [16A] | 1 to 2 µM
CNC(=O)c1ccsc1NC(=O)c1cccc(Oc2ccccc2)c1 [16B] | 1 to 2 µM
O=C(Nc1ncccc1Br)c1cc(-n2cccn2)ccn1 [17A] | 1 to 2 µM
O=C(Nc1ccc(C(F)(F)F)oc1=O)c1ccc(Cl)cc1 [17B] | 0.5 to 1 µM
COc1ccc(NC(=O)c2ccc(C(F)(F)F)[nH]c2=O)cn1 [18A] | > 2 µM
CS(=O)(=O)c1csc(C(=O)Nc2cccc(Cl)c2)c1Cl [18B] | > 2 µM
Cc1c(Cl)cccc1NC(=O)c1occc1COc1ccccc1 [19A] | 1 to 2 µM
Cc1cc(NC(=O)c2nnn(-c3ccccc3)c2C)no1 [19B] | > 2 µM
CCOC(=O)c1c(N)sc(C(=O)Nc2cccc(C(F)(F)F)c2)c1C [20A] | 1 to 2 µM
COc1c(C(=O)Nc2ccc(Cl)cc2)ccc2ccccc12 [20B] | 0.5 to 1 µM
CC(=O)c1ccc(C(=O)Nc2ccc(C)cc2Cl)s1 [21A] | 1 to 2 µM
O=C(Nc1cc2c(s1)CCCC2)c1ccccc1 [21B] | 1 to 2 µM
Cc1nn(C(=O)Nc2ccccc2)c(C)c1Oc1ccccc1 [22A] | 1 to 2 µM
Cc1ccc(C(=O)Nc2nc3c(C)cc(C)cc3s2)cc1 [22B] | 1 to 2 µM
CCn1cc(C(=O)Nc2ccc(C(C)C)cc2)cn1 [23A] | 1 to 2 µM
O=C(Nc1cc2ccccc2s1)c1ccccc1 [23B] | 1 to 2 µM
Cc1ccc(NC(=O)c2cc(C(C)C)n[nH]2)cc1 [24A] | > 2 µM
Cn1nc(C(F)(F)F)c2cc(C(=O)Nc3ccc(F)cc3)sc21 [24B] | 0.5 to 1 µM
Cc1ccc(C(=O)Nc2cc(C(C)(C)C)on2)cc1 [25A] | > 2 µM
COc1ccc2[nH]c(C(=O)Nc3ccc(Br)c(C)n3)cc2c1 [25B] | 0.2 to 0.5 µM
Cc1c(C(=O)Nc2ccccc2)nnn1Cc1ccccc1 [26A] | 1 to 2 µM
O=C(Nc1ccc(Cl)cn1)C1Cc2ccccc2C1 [26B] | 0.5 to 1 µM
O=C(Nc1nnc(-c2ccc(F)cc2)[nH]1)c1ccc(S(=O)(=O)C(F)F)cc1 [27A] | 1 to 2 µM
